The text below walks through data of ChEMBL document CHEMBL1140950, “Discovery of (2S,4R)-1-(2-aminoacetyl)-4-benzamidopyrrolidine-2-carboxylic acid hydrochloride (GAP-134)13, an orally active small molecule gap-junction modifier for the treatment of atrial fibrillation” (J Med Chem, 2009).

Data set [1] has as its system Mus musculus. Kind of data set: Antiarrhythmic effect in calcium chloride-induced CD1 mouse arrhythmia model assessed as gap-junction intracellular communication re-establishment-mediated prolongation of time to onset of cardiac conduction block at 10 pmol/kg, iv relative to control. The data set is classed as functional, Heart.
The subject of data set [2] is Mus musculus. Kind of data set: Antiarrhythmic effect in calcium chloride-induced CD1 mouse arrhythmia model assessed as gap-junction intracellular communication re-establishment-mediated prolongation of time to onset of cardiac conduction block at 1 nmol/kg, iv relative to control. The data set is classed as functional, Heart.
Data set [3] relates to Mus musculus. Kind of data set: Antiarrhythmic effect in calcium chloride-induced CD1 mouse arrhythmia model assessed as gap-junction intracellular communication re-establishment-mediated prolongation of time to onset of cardiac conduction block at 1 pmol/kg, iv relative to control. The data set is classed as functional, Heart.
In data set [4] the test system is Mus musculus. Kind of data set: Antiarrhythmic effect in calcium chloride-induced CD1 mouse arrhythmia model assessed as gap-junction intracellular communication re-establishment-mediated prolongation of time to onset of cardiac conduction block at 100 pmol/kg, iv relative to control. It counts as functional, Heart.
The nature of data set [5]: Cmax in rat at 5 mg/kg, po. Particulars: in vivo. The data set is classed as ADME, organism-based. Also noted: dose 5 mg/kg, route oral.
Data set [6] in a line: Tmax in rat at 5 mg/kg, po. The conditions noted are these: in vivo. Also noted: dose 5 mg/kg, route oral. The data set is classed as ADME, organism-based.
Data set [7] relates to Rattus norvegicus. Kind of data set: (§1) Oral bioavailability in rat at 5 mg/kg. The data set is classed as ADME, organism-based. Particulars: in vivo.
Data set [8] relates to Rattus norvegicus. Kind of data set: (§2) AUC in rat at 5 mg/kg, po. The data set is classed as ADME, organism-based, Plasma. Also noted: dose 5 mg/kg, route oral. Particulars: in vivo.
Data set [9] can be described thus: Volume of distribution at steady state in rat at 0.5 mg/kg, iv. The data set is classed as ADME, organism-based. Also on record: dose 0.5 mg/kg, route intravenous. The conditions noted are these: in vivo, read-out: Vdss.
Data set [10] can be described thus: Half life in rat at 5 mg/kg, po. The data set is classed as ADME, organism-based. Also noted: dose 5 mg/kg, route oral. Particulars: in vivo.
Data set [11] is described as follows: Half life in rat at 0.5 mg/kg, iv. Also noted: dose 0.5 mg/kg, route intravenous. The conditions noted are these: in vivo. The data set is classed as ADME, organism-based.
The test system of the next data set is Cardiac atrium. Kind of data set: Prevention of metabolic stress-induced conduction velocity slowing in Sprague-Dawley rat atrium at 10 uM by microelectrode based assay. The data set is classed as functional, tissue-based.
The target in another data set is Cytochrome P450 2D6 (Homo sapiens, UniProt P10635). Kind of data set: Inhibition of CYP2D6 at 3 uM. It counts as ADME.
A further data set deals with Cytochrome P450 2C9 (Homo sapiens, UniProt P11712). Kind of data set: Inhibition of CYP2C9 at 3 uM. The data set is classed as ADME.
Data set [12] in a line: Clearance in rat at 0.5 mg/kg, iv. It counts as ADME, organism-based. Also noted: dose 0.5 mg/kg, route intravenous. Particulars: in vivo.
The target of another data set is Cytochrome P450 3A4 (Homo sapiens, UniProt P08684). Kind of data set: Inhibition of CYP3A4 at 3 uM. It counts as ADME.
Data set [13] can be described thus: as §1. Particulars: in vivo. The data set is classed as ADME, organism-based.
In data set [14] the test system is Mus musculus. Kind of data set: Antiarrhythmic effect in calcium chloride-induced po dosed CD1 mouse arrhythmia model assessed as gap-junction intracellular communication re-establishment-mediated prolongation of time to onset of cardiac conduction block relative to control. The data set is classed as functional, Heart.
Data set [15] deals with C6. Kind of data set: Reduction of simulated ischemia-induced calcein uptake in rat C6 cells. It counts as functional, cell-based.
Data set [16] addresses Voltage-gated inwardly rectifying potassium channel KCNH2 (Homo sapiens, UniProt Q12809). Kind of data set: Inhibition of human ERG.
The subject of data set [17] is C6. Kind of data set: Reduction of simulated ischemia-induced cell swelling in rat C6 cells. It counts as functional, cell-based.
The nature of data set [18]: as §2. Also on record: dose 5 mg/kg, route oral. It counts as ADME, organism-based, Plasma. Particulars: plasma.
Data set [19] in a line: Oral bioavailability in dog. It counts as ADME, organism-based, Canis lupus familiaris. Particulars: in vivo.
Data set [20] has as its system Mus musculus. Kind of data set: Antiarrhythmic effect in calcium chloride-induced CD1 mouse arrhythmia model assessed as gap-junction intracellular communication re-establishment-mediated prolongation of time to onset of cardiac conduction block at 10 mg/kg, po relative to control. It counts as functional, organism-based. Also noted: dose 10 mg/kg. Particulars: Heart.

Structures are written as SMILES. Calls of active or inactive are those of the source. Where a SMILES comes first, the peptide text is derived from it. [ ]: non-standard residue; d: D form. dHyp = O=C(O)[C@H]1C[C@H](O)CN1

Chain of Cytochrome P450 3A4 (P08684 whole entry): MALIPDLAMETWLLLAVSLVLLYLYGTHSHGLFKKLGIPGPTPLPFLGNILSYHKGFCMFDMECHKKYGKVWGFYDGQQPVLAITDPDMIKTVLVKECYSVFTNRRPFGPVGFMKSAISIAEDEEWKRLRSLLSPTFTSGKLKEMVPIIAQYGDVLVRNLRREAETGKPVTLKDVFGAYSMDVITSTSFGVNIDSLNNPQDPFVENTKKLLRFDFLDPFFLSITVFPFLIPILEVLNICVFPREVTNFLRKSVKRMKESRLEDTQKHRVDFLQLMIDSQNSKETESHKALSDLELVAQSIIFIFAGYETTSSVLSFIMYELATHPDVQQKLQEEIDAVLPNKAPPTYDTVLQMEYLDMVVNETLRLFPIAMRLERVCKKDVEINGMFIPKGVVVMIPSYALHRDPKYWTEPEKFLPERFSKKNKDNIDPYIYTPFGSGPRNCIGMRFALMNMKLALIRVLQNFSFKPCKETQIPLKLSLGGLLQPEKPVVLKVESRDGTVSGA
Chain of Voltage-gated inwardly rectifying potassium channel KCNH2 (Q12809 whole entry): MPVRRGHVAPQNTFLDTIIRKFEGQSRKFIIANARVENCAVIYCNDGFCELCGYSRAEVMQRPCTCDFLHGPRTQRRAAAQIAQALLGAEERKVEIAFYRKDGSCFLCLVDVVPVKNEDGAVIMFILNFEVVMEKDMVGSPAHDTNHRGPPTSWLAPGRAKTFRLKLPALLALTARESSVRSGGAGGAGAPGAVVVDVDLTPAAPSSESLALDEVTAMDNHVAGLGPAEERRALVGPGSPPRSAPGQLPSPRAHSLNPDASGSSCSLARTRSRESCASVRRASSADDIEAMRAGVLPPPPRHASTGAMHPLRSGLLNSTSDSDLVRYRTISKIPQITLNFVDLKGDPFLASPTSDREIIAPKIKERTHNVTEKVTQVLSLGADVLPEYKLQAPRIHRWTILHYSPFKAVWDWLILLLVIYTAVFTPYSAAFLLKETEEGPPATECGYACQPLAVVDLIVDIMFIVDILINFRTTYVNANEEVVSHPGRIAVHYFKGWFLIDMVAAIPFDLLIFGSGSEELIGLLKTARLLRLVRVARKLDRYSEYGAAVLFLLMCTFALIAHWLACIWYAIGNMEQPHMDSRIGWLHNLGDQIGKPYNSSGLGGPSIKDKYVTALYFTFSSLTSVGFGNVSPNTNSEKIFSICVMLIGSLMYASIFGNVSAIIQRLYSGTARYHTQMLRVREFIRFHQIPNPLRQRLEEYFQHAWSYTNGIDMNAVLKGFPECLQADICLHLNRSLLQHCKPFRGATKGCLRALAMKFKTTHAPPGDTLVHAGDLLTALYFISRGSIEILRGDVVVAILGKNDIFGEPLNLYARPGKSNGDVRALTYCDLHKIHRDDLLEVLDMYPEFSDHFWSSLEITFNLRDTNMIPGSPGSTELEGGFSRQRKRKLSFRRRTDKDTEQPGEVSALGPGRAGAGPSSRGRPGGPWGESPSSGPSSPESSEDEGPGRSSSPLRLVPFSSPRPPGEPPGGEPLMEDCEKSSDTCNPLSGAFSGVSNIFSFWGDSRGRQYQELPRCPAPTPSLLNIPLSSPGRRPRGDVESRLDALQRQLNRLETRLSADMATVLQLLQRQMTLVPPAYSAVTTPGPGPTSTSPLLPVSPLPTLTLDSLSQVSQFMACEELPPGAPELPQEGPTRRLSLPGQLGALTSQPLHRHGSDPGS
Chain of Cytochrome P450 2D6 (P10635 whole entry): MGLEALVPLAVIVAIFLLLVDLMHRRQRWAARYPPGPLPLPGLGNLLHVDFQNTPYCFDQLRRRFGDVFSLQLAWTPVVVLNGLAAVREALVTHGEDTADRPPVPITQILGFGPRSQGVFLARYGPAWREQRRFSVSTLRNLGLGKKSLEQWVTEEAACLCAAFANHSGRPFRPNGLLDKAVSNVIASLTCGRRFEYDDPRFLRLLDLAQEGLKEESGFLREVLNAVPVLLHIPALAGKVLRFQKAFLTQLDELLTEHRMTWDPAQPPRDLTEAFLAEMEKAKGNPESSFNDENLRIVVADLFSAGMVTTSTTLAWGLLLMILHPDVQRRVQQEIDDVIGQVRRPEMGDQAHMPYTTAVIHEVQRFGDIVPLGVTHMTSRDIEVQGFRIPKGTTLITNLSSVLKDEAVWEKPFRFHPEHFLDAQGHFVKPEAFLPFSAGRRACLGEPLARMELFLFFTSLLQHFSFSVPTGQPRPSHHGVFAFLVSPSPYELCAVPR
Chain of Cytochrome P450 2C9 (P11712 whole entry): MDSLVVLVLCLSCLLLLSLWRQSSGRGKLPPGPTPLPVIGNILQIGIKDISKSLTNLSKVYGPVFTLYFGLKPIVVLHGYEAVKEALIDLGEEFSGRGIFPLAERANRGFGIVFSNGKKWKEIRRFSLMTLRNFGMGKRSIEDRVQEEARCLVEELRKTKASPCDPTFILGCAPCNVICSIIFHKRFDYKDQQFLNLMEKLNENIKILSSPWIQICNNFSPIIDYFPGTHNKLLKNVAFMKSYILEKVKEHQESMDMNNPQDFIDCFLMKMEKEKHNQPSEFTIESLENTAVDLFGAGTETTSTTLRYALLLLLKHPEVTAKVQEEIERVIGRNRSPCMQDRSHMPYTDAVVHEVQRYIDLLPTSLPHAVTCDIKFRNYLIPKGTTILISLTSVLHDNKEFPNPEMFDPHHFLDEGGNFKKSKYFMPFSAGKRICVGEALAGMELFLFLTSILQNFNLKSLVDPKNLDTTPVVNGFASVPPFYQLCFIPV

As to `CC(=O)N[C@@H](C)C(=O)NCC(=O)N[C@@H](CC(N)=O)C(=O)N[C@@H](Cc1ccc(O)cc1)C(N)=O` (Ac-AGNY-NH2), the Activity worked out at 157% in the data set with Mus musculus [1], 136% with Mus musculus [2], 228% in the data set on Mus musculus [3] and 205% with Mus musculus [4].
A word on the Cmax: it is the maximum level reached in the sampled fluid or tissue. What is called Tmax is the time at which the peak concentration occurs. The AUC is concentration integrated over time. A lower AUC goes with low exposure. Broadly, the half-life is the time needed for the level to fall by half in the phase considered. In data set [5], `NC(=O)C[C@H](NC(=O)CO)C(=O)N[C@@H](Cc1ccc(O)cc1)C(N)=O` returned a Cmax of 31.5 ng/mL. Also, the Activity came to 232% in the data set with Mus musculus [1], 187% in the data set on Mus musculus [2], 188% in the data set with Mus musculus [3] and 203% in the data set on Mus musculus [4]. Also, the Tmax in data set [6] is 24 min. Besides, the F in the data set on Rattus norvegicus [7] was 0.7%. In the data set on Rattus norvegicus [8], this molecule showed an AUC of 36 ng·h/mL. Also, in [9], the Vd amounted to 0.9 L/kg. The half-life in [10] is 30 min; in data set [11], 18 min. The result in the data set on Cardiac atrium was Active.
Consider `N[C@H](CCCCNC(=O)CNC(=O)c1ccc([N+](=O)[O-])cc1)CC(=O)O`, for which the Activity in the data set with Mus musculus [1] is given as 206%; in the data set on Mus musculus [2] it was 201%; in the data set on Mus musculus [3], 124%; in the data set with Mus musculus [4], 197%.
For orientation: clearance means the volume of plasma or blood freed of the substance per unit of time. One may read the bioavailability as the share of a dose that reaches the circulation, judged against a reference dose that is usually intravenous. Lower therefore signals poor availability. On to `Cl.NCC(=O)N1C[C@H](NC(=O)c2ccccc2)C[C@H]1C(=O)O`, for which the Activity entry is recorded as “Not Active” on Cytochrome P450 2D6; “Not Active” on Cytochrome P450 2C9; 207% in the data set with Mus musculus [1]; “Not Active” on Cytochrome P450 3A4; 200% in the data set on Mus musculus [14]; 173% in the data set on Mus musculus [2]. The Activity result was “Dose-dependent effect” in the data set with C6 [15], “Not Active” in data set [16], 162% with Mus musculus [3] and 148% in the data set with Mus musculus [4]. For the same molecule, the Cmax in [5] came to 105 ng/mL. For the same molecule, the clearance in [12] was 22 mL/min/kg. Moreover, the Tmax in data set [6] worked out at 30 min. Besides, the bioavailability was determined as 9% in [13] and 21% in data set [19]. In addition, the outcome with C6 [17] and with Cardiac atrium was Active. Besides, in data set [18], the area under the curve (AUC) worked out at 360 ng·h/mL. Also, the Vd in data set [9] was 0.61 L/kg. Also, the half-life in data set [10] is 114 min; in [11] it was 48 min.
On to `CC(=O)N[C@H](Cc1ccc(O)cc1)C(=O)N1CCC[C@@H]1C(=O)N1C[C@@H](O)C[C@@H]1C(=O)NCC(=O)N[C@H](C)C(=O)NCC(N)=O` [ROTIGAPTIDE] (Ac-[dY][dP][dHyp]G[dA]G-NH2), for which the Activity with Mus musculus [1] was 207%; in the data set on Mus musculus [2], 156%; in the data set with C6 [15], “Dose-dependent effect”; in the data set on Mus musculus [3] it was 199%; with Mus musculus [4], 152%. The result with Mus musculus [20] and in the data set on Cardiac atrium was Active.
As to `COc1ccc(C(=O)NCC(=O)NCCCC[C@@H](N)CC(=O)O)cc1`, the Cmax in [5] worked out at 28 ng/mL. Further, the clearance in [12] was 31 mL/min/kg. In addition, the Activity with Mus musculus [1] is recorded as 133%; in the data set with Mus musculus [2], 164%; in the data set on Mus musculus [3], 220%; with Mus musculus [4], 128%. Also, the time of peak concentration (Tmax) in data set [6] stood at 45 min. For the same molecule, the bioavailability in data set [13] turned out to be 2%. In addition, in data set [18], the AUC came out at 71 ng·h/mL. The Vd in data set [9] worked out at 0.4 L/kg. For the same molecule, the half-life in [10] is 90 min; in data set [11], 18 min. In addition, the outcome with Cardiac atrium was Active.
Turning to `NCC(=O)NCCCC[C@@H](NC(=O)c1ccc([N+](=O)[O-])cc1)C(=O)O`, the Activity with Mus musculus [1] was found to be 177%; in the data set on Mus musculus [2] it was 158%; with Mus musculus [3], 192%; with Mus musculus [4] it was 151%.
